# Laboratory results reported in patent US20110263629A1, “AMIDES OF DIAZABICYCLOOCTANES AND USES THEREOF” (Targacept, Inc., priority 2008, published 2011).
# Where two headings read alike, the source gives them in different places.
# How the values were obtained:
# human α4β2 nAChR subtype = biological target: T1, human α4β2 nAChR subtype (Homo sapiens, UniProt P17787+P43681); experiment: Radioligand binding ([3H]nicotine) at human α4β2 nAChR, SH-EP1/human α4β2 clonal cell membranes
# T1 construct: expressed in transfected cells; host or cells: SH-EP1 clonal cells expressing human α4β2
# Protocol: Preparation of membranes from SH-EP1/human α4β2 clonal cells: Cell pellets from 40 150 mm culture dishes were pooled, and homogenized by Polytron (Kinematica GmbH, Switzerland) in 20 milliliters of ice-cold preparative buffer. The homogenate was centrifuged at 48,000 g for 20 minutes at 4° C. The resulting pellet was re-suspended in 20 mL of ice-cold preparative buffer and stored at −20° C.
# (§1) On the day of the assay, the frozen membranes were thawed and spun at 48,000×g for 20 min. The supernatant was decanted and discarded. The pellet was resuspended in Dulbecco's phosphate buffered saline (PBS, Life Technologies) pH 7.4 and homogenized with the Polytron for 6 seconds. Protein concentrations were determined using a Pierce BCA Protein Assay Kit, with bovine serum albumin as the standard (Pierce Chemical Company, Rockford, Ill.).
# (§2) Incubation was terminated by rapid filtration on a multi-manifold tissue harvester (Brandel, Gaithersburg, Md.) using GF/B filters presoaked in 0.33% polyethyleneimine (w/v) to reduce non-specific binding. Tissue was rinsed 3 times in PBS, pH 7.4. Scintillation fluid was added to filters containing the washed tissue and allowed to equilibrate. Filters were then counted to determine radioactivity bound to the membranes by liquid scintillation counting (2200CA Tri-Carb LSC, Packard Instruments, 50% efficiency or Wallac Trilux 1450 MicroBeta, 40% efficiency, Perkin Elmer).
# (§3) Data were expressed as disintegrations per minute (DPMs). Within each assay, each point had 2-3 replicates. The replicates for each point were averaged and plotted against the log of the drug concentration. IC50, which is the concentration of the compound that produces 50% inhibition of binding, was determined by least squares non-linear regression. Ki values were calculated using the Cheng-Prussof equation (1973): […]
# rat α7 nAChR subtype = biological target: T2, rat α7 nAChR subtype (Rattus norvegicus, UniProt Q05941); experiment: Radioligand binding ([3H]MLA) at α7 nAChR, rat hippocampus membranes
# T2 construct: Preparation of membranes from rat hippocampus; from tissue; host or cells: rat hippocampus membranes
# Protocol: Preparation of membranes from rat hippocampus: Rats (female, Sprague-Dawley), weighing 150-250 g, were maintained on a 12 h light/dark cycle and were allowed free access to water and food supplied by PMI Nutrition International, Inc. Animals were anesthetized with 70% CO2, then decapitated. Brains were removed and placed on an ice-cold platform. The hippocampus was removed and placed in 10 volumes (weight:volume) of ice-cold preparative buffer (137 mM NaCl, 10.7 mM KCl, 5.8 mM KH2PO4, 8 mM Na2HPO4, 20 mM HEPES (free acid), 5 mM iodoacetamide, 1.6 mM EDTA, pH 7.4); PMSF, dissolved in methanol to a final concentration of 100 μM, was added and the tissue suspension was homogenized by Polytron. The homogenate was centrifuged at 18,000×g for 20 min at 4° C. and the resulting pellet was re-suspended in 10 volumes of ice-cold water. After 60 min incubation on ice, a new pellet was collected by centrifugation at 18,000×g for 20 min at 4° C. The final pellet was re-suspended in 10 volumes of buffer and stored at −20° C.
# On the day of the assay, tissue was thawed, centrifuged at 18,000×g for 20 min, and then re-suspended in ice-cold PBS (Dulbecco's Phosphate Buffered Saline, 138 mM NaCl, 2.67 mM KCl, 1.47 mM KH2PO4, 8.1 mM Na2HPO4, 0.9 mM CaCl2, 0.5 mM MgCl2, Invitrogen/Gibco, pH 7.4) to a final concentration of approximately 2 mg protein/mL. Protein was determined by the method of Lowry et al., J. Biol. Chem. 193: 265 (1951), herein incorporated by reference, using bovine serum albumin as the standard.
# Assay: The binding of [^3H]MLA was measured using a modification of the methods of Davies et al., Neuropharmacol. 38: 679 (1999), herein incorporated by reference. [^3H]MLA (Specific Activity=25-35 Ci/mmol) was obtained from Tocris. The binding of [^3H]MLA was determined using a 2 h incubation at 21° C. Incubations were conducted in 48-well micro-titre plates and contained about 200 μg of protein per well in a final incubation volume of 300 μL. The incubation buffer was PBS and the final concentration of [^3H]MLA was 5 nM. The binding reaction was terminated by filtration of the protein containing bound ligand onto glass fiber filters (GF/B, Brandel) using a Brandel Tissue Harvester at room temperature. Filters were soaked in de-ionized water containing 0.33% polyethyleneimine to reduce non-specific binding. Each filter was washed with PBS (3×1 mL) at room temperature. Non-specific binding was determined by inclusion of 50 μM non-radioactive MLA in selected wells.
# The inhibition of [^3H]MLA binding by test compounds was determined by including seven different concentrations of the test compound in selected wells. Each concentration was replicated in triplicate. IC50 values were estimated as the concentration of compound that inhibited 50 percent of specific [^3H]MLA binding. Inhibition constants (Ki values), reported in nM, were calculated from the IC50 values using the method of Cheng et al., Biochem. Pharmacol. 22: 3099-3108 (1973), herein incorporated by reference.
# rat α4β2 nAChR subtype = biological target: T3, rat α4β2 nAChR subtype (Rattus norvegicus, UniProt P09483+P12390); experiment: Radioligand binding ([3H]nicotine) at rat α4β2 nAChR, rat cortex membranes
# T3 construct: Preparation of membranes from rat cortex; from tissue; host or cells: rat cerebral cortex membranes
# Protocol: Preparation of membranes from rat cortex: Rats (female, Sprague-Dawley), weighing 150-250 g, were maintained on a 12 h light/dark cycle and were allowed free access to water and food supplied by PMI Nutrition International, Inc. Animals were anesthetized with 70% CO2, and then decapitated. Brains were removed and placed on an ice-cold platform. The cerebral cortex was removed and placed in 20 volumes (weight:volume) of ice-cold preparative buffer (137 mM NaCl, 10.7 mM KCl, 5.8 mM KH2PO4, 8 mM Na2HPO4, 20 mM HEPES (free acid), 5 mM iodoacetamide, 1.6 mM EDTA, pH 7.4); PMSF, dissolved in methanol to a final concentration of 100 μM, was added and the suspension was homogenized by Polytron. The homogenate was centrifuged at 18,000×g for 20 min at 4° C. and the resulting pellet was re-suspended in 20 volumes of ice-cold water. After 60 min incubation on ice, a new pellet was collected by centrifugation at 18,000×g for 20 min at 4° C. The final pellet was re-suspended in 10 volumes of buffer and stored at −20° C.
# as §1, §2, §3
# [1] = rat hippocampus membranes, 5 nM [3H]MLA, read-out: Rat α7 Ki
# [2] = rat cortex membranes, 5 nM [3H]nicotine, read-out: Rat α4β2 Ki
# [3] = SH-EP1/human α4β2 cell membranes, 5 nM [3H]nicotine, read-out: Human α4β2 Ki
# T1 sequence (P43681 29-627 limits assumed): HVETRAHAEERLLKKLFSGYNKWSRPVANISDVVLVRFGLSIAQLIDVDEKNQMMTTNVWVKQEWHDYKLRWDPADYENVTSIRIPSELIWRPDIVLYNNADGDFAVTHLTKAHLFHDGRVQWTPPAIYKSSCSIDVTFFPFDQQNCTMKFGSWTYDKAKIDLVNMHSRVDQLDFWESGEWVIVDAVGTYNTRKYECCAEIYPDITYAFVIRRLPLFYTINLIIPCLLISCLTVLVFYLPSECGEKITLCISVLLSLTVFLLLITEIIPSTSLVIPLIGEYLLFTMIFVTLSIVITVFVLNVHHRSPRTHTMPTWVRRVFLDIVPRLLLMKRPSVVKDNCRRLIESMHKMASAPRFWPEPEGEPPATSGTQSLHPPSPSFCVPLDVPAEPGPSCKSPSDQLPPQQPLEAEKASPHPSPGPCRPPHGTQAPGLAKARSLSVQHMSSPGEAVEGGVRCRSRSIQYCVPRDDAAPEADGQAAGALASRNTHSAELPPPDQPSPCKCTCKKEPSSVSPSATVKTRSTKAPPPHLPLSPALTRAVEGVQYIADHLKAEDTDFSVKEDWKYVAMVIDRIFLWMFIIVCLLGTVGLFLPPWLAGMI
# T1 sequence (P17787 26-502): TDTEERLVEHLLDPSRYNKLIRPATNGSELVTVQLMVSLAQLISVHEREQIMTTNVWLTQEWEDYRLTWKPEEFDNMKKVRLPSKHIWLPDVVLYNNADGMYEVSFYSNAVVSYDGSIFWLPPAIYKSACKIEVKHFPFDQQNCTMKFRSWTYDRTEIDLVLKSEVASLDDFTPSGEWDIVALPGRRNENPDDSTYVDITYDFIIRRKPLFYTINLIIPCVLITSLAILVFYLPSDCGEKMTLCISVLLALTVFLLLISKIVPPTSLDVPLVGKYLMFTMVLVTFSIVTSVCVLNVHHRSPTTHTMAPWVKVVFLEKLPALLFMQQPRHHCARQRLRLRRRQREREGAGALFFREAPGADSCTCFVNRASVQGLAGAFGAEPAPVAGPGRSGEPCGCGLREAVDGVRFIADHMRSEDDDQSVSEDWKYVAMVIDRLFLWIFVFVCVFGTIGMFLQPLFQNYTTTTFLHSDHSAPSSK
# T2 sequence (Q05941 23-502): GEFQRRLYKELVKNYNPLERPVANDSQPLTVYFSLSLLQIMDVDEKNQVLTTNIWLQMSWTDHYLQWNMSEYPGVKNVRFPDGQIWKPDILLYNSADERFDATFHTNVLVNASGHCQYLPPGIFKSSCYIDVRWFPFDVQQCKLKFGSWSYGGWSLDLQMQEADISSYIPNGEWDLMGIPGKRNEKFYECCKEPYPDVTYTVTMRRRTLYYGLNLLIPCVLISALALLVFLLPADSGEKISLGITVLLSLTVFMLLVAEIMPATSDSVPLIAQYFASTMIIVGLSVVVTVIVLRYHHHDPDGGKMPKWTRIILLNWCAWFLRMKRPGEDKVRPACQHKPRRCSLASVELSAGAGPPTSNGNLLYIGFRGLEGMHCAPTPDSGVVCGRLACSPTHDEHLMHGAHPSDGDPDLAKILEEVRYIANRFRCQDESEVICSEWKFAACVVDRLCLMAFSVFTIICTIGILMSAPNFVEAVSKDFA
# T3 sequence (P09483 31-630): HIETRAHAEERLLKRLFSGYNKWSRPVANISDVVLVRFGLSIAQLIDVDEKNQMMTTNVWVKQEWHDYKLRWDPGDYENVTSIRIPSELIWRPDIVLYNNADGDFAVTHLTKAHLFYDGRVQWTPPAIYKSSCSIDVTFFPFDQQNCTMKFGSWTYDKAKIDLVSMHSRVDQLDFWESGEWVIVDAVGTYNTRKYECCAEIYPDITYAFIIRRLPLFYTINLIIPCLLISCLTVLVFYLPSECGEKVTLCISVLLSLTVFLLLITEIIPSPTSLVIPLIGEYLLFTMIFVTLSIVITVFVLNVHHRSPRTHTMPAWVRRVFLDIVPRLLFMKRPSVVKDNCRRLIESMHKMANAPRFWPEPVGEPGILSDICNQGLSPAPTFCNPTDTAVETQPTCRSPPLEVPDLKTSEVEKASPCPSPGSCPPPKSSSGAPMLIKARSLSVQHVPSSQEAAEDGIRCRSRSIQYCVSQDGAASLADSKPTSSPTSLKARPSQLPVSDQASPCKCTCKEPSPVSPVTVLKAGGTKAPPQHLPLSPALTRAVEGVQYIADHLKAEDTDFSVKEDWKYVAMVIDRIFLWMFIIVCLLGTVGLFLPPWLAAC
# T3 sequence (P12390 25-500): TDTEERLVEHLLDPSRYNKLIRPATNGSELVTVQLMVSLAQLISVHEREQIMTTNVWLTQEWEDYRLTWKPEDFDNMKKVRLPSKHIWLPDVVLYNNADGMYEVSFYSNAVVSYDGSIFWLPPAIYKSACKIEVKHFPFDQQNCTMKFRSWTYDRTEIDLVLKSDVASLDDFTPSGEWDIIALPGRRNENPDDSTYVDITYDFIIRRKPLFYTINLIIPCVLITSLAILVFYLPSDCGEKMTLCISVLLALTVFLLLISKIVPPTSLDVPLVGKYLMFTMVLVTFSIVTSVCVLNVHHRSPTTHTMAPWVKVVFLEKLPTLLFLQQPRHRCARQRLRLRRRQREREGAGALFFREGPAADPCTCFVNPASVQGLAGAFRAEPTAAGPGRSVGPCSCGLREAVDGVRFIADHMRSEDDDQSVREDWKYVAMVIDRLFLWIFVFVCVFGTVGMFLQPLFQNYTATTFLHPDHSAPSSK
SMILES,Ki (human α4β2 nAChR subtype; read-out: Human α4β2 Ki) [nM],Ki (rat α4β2 nAChR subtype; read-out: Rat α4β2 Ki) [nM],further results
O=C(C1CCC1)N1C[C@H]2CNC[C@@H]1C2,180,,Ki (rat α7 nAChR subtype): 1500 nM
CCCC(=O)N1C[C@@H]2CN[C@@H](C2)C1,18,18,Ki (rat α7 nAChR subtype): 160 nM
CC(C)C(=O)N1C[C@H]2CNC[C@@H]1C2,770,,Ki (rat α7 nAChR subtype; [1]): 890 nM
O=C(C1CC1)N1CC2CNCC1C2 (stereo not drawn),3.4,5.6,
CCOC(=O)N1C[C@@H]2CNC[C@H]1C2,78,32,Ki (rat α7 nAChR subtype): > 10000 nM
COC(=O)N1CC2CNC(C2)C1 (stereo not drawn),12,6.8,
O=C(C1CC=CC1)N1C[C@H]2CN[C@H](C2)C1,4.4,5.5,Ki (rat α7 nAChR subtype): 65 nM
COCCOC(=O)N1C[C@@H]2CN[C@@H](C2)C1,,,Ki (rat α4β2 nAChR subtype; [2]): 1000 nM; Ki (human α4β2 nAChR subtype; [3]): 580 nM
O=C(C1CC1)N1C[C@@H]2CN[C@@H](C2)C1,7.3,14,Ki (rat α7 nAChR subtype): 98 nM
CCCC(=O)N1C[C@@H]2CNC[C@H]1C2,34,,
CCCCC(=O)N1C[C@@H]2CN[C@@H](C2)C1,77,36,
O=C([C@@H]1C[C@H]1F)N1C[C@H]2CNC[C@@H]1C2,230,,
CCCCS(=O)(=O)N1C[C@@H]2CN[C@@H](C2)C1,2100,,
CC(=O)N1C[C@@H]2CNC[C@H]1C2,1300,,
CC(C)CC(=O)N1C[C@@H]2CN[C@@H](C2)C1,350,320,
CC(C)C(=O)N1C[C@@H]2CNC[C@H]1C2,590,,
O=C(C1CCC1)N1C[C@@H]2CNC[C@H]1C2,23,,
COCCOC(=O)N1C[C@H]2CN[C@H](C2)C1,,74,Ki (human α4β2 nAChR subtype; [3]): 310 nM
CC(=O)N1C[C@@H]2CN[C@@H](C2)C1,,,Ki (rat α4β2 nAChR subtype; [2]): 580 nM; Ki (human α4β2 nAChR subtype; [3]): 730 nM
COC(=O)N1C[C@H]2CNC[C@@H]1C2,,,Ki (human α4β2 nAChR subtype; [3]): 5700 nM
O=C(Oc1ccc(F)cc1)N1C[C@H]2CN[C@H](C2)C1,,,Ki (rat α4β2 nAChR subtype): 45 nM; Ki (human α4β2 nAChR subtype): 310 nM
CN1C[C@H]2C[C@@H]1CN(C(=O)C1CC1)C2,18,19,
COC(=O)N1C[C@H]2CN[C@H](C2)C1,7.9,4.8,
CC(C)(C)C(=O)N1C[C@H]2CN[C@H](C2)C1,26,68,
COC(=O)N1C[C@@H]2CNC[C@H]1C2,86,40,
CCOC(=O)N1C[C@H]2CNC[C@@H]1C2,1400,,
CCNC(=O)N1C[C@@H]2CN[C@@H](C2)C1,560,160,

SMILES,Ki (human α4β2 nAChR subtype; read-out: Human α4β2 Ki) [nM],Ki (rat α4β2 nAChR subtype; read-out: Rat α4β2 Ki) [nM],further results
O=C([C@H]1C[C@@H]1F)N1C[C@@H]2CNC[C@H]1C2,11,,
O=C(C1CC12CCC2)N1C[C@@H]2CN[C@@H](C2)C1 (stereo partly drawn),2.3,3,
O=C(Nc1ccc(F)cc1)N1C[C@@H]2CN[C@@H](C2)C1,> 10000,2200,
O=C(CC(F)(F)F)N1C[C@@H]2CN[C@@H](C2)C1,73,,Ki (rat α4β2 nAChR subtype; [2]): 110 nM
C/C=C/CC(=O)N1C[C@@H]2CN[C@@H](C2)C1,220,180,
C=CCNC(=S)N1C[C@@H]2CN[C@@H](C2)C1,> 10000,9900,
O=C([C@H]1C[C@H]1F)N1C[C@@H]2CNC[C@H]1C2,3.7,2.9,
CC(C)OC(=O)N1C[C@@H]2CN[C@@H](C2)C1,,,Ki (rat α4β2 nAChR subtype; [2]): 970 nM; Ki (human α4β2 nAChR subtype; [3]): 560 nM
CC(=O)N1C[C@H]2CN[C@H](C2)C1,34,14,
CCC(=O)N1C[C@@H]2CNC[C@H]1C2,27,,
CC(C)S(=O)(=O)N1C[C@@H]2CN[C@@H](C2)C1,16,,Ki (rat α4β2 nAChR subtype; [2]): 750 nM
CCCOC(=O)N1C[C@@H]2CN[C@@H](C2)C1,94,43,
O=C(CCF)N1C[C@H]2CNC[C@@H]1C2,2400,,Ki (rat α7 nAChR subtype; [1]): 2300 nM
CC(C)OC(=O)N1C[C@H]2CN[C@H](C2)C1,44,24,
CCOC(=O)N1C[C@@H]2CN[C@@H](C2)C1,49,25,
CCCS(=O)(=O)N1C[C@@H]2CN[C@@H](C2)C1,2800,,
O=C(C1CC1)N1C[C@@H]2CNC[C@H]1C2,4,7,
CC1(C)C(C(=O)N2CC3CNC(C3)C2)C1(C)C (stereo not drawn),8600,,
CCS(=O)(=O)N1C[C@@H]2CN[C@@H](C2)C1,1200,,
C=CCNC(=O)N1C[C@@H]2CN[C@@H](C2)C1,910,130,
CC1(C)CC1C(=O)N1C[C@@H]2CN[C@@H](C2)C1 (stereo partly drawn),31,49,
O=C(C1CC1)C1N[C@H]2CNC[C@@H]1C2 (stereo partly drawn),480,,Ki (rat α7 nAChR subtype): 1300 nM
COC(=O)N1C[C@@H]2CN[C@@H](C2)C1,,100,Ki (human α4β2 nAChR subtype; [3]): 120 nM
O=C(C1CCOC1)N1C[C@@H]2CN[C@@H](C2)C1 (stereo partly drawn),46,,Ki (rat α4β2 nAChR subtype; [2]): 140 nM
COc1ccc(S(=O)(=O)N2C[C@@H]3CN[C@@H](C3)C2)cc1,580,750,
CS(=O)(=O)N1C[C@@H]2CN[C@@H](C2)C1,2300,,
